Columns and labels:
[1] = Inhibition of bovine brain FTase using 3H-farnesyl diphosphate as substrate incubated for 30 mins by beta-plate counting method; design: species or system Bos taurus
[2] = Inhibition of recombinant human FTase
[3] = Inhibition of Trypanosoma brucei FTase
[4] = tested on: Plasmodium falciparum; assay: Antiplasmodial activity against chloroquine-resistant Plasmodium falciparum FcB1 infected in erythrocyte incubated for 48 hrs by [3H]-hypoxanthine incorporation assay; assay type: functional, organism-based
[5] = Inhibition of partially purified human FTase using dan-syl-GCVLS peptide as substrate measured for 15 mins by fluorescence based assay
[6] = Cytotoxicity against human tumor cell line; assay type: cell-based

**Q.** Which IC50 [1] does the source give for `CCCCCCCCCC(=O)O[C@@H]1[C@@H](O)C2(CCCC(OC(C)=O)C(C)C/C=C/c3ccccc3)OC(C(=O)O)C(O)(C(=O)O)C1(C(=O)O)O2` (stereo partly specified) here?
**A.** The IC50 was 100 nM.

**Q.** For `CCC(CC(C)C(=O)O)C(=O)CC/C1=C/C(C)C/C(C)=C/C(C)C(O)C(C)CCC(CCCC/C=C/C(C)CCC(C)OC(=O)CC(CC(=O)O)C(=O)O)OC(=O)CC(C(=O)O)CC(=O)OC1` (stereo unspecified) [ACTINOPLANIC ACID A], which IC50 [2] is on record?
**A.** The IC50 was 230 nM.

**Q.** With `CC(=O)OC(CCCC12OC(C(=O)O)C(O)(C(=O)O)C(C(=O)O)(O1)[C@H](OC(=O)CC/C=C/C(C)CCCc1ccccc1)[C@H]2O)C(C)Cc1ccccc1` (stereo partly specified) as the molecule, how does the IC50 [1] read?
**A.** Its IC50 is 150 nM.

**Q.** Which IC50 ([3]; read-out: IC50) does the source give for `CC(C)=CCC/C(C)=C/CCC1(C)C=Cc2c(-c3c4c(c5ccccc5c3O)OC(C)(CC/C=C(\C)CCC=C(C)C)C=C4)c(O)c3ccccc3c2O1` (stereo unspecified) here?
**A.** The IC50 was 8700 nM.

**Q.** And the IC50 [4]?
**A.** Its IC50 is 7.05 µM.

**Q.** What about the IC50 [5] of the same molecule?
**A.** Its IC50 is 1800 nM.

**Q.** What about the Activity [6] of the same molecule?
**A.** Its Activity is “Non-Toxic”.

**Q.** For `CC(C)=CCCc1ccc2c(c1)C(=O)c1ccccc1C2=O`, which IC50 ([3]; read-out: IC50) is on record?
**A.** The IC50 was 1400 nM.

**Q.** And the IC50 [4]?
**A.** The IC50 was > 34 µM.

**Q.** What about the IC50 [5] of the same molecule?
**A.** Its IC50 is 1500 nM.

**Q.** What about the Activity [6] of the same molecule?
**A.** The Activity was “Non-Toxic”.

**Q.** Which IC50 ([3]; read-out: IC50) does the source give for `CC(C)=CCCC1(C)C=Cc2c(-c3c4c(c5ccccc5c3O)OC(C)(CCC=C(C)C)C=C4)c(O)c3ccccc3c2O1` (stereo unspecified) here?
**A.** Its IC50 is 6100 nM.

**Q.** And the IC50 [4]?
**A.** The IC50 was 10.6 µM.

**Q.** And the IC50 [5]?
**A.** Its IC50 is 4400 nM.

**Q.** And the Activity [6]?
**A.** The Activity was “Non-Toxic”.

**Q.** With `CC(C)=CCCC1(C)C=Cc2c3c(c4ccccc4c2O1)OC(C)(CCC=C(C)C)C=C3` (stereo unspecified) as the molecule, how does the IC50 ([3]; read-out: IC50) read?
**A.** The IC50 was 7900 nM.

**Q.** And the IC50 [4]?
**A.** Its IC50 is > 23 µM.

**Q.** What about the IC50 [5] of the same molecule?
**A.** Its IC50 is 4400 nM.

**Q.** And the Activity [6]?
**A.** Its Activity is “Non-Toxic”.

**Q.** For `CC(C)=CCC/C(C)=C/C1Oc2c(c3c(c4ccccc24)OC(C)(CCC=C(C)C)C=C3)C2=C1C(=O)c1ccccc1C2=O` (stereo unspecified), which IC50 ([3]; read-out: IC50) is on record?
**A.** The IC50 was 2700 nM.

**Q.** What about the IC50 [4] of the same molecule?
**A.** Its IC50 is > 17 µM.

**Q.** What about the IC50 [5] of the same molecule?
**A.** The IC50 was 1100 nM.

**Q.** And the Activity [6]?
**A.** The Activity was “Non-Toxic”.

**Q.** Which IC50 ([3]; read-out: IC50) does the source give for `CC(C)=CC1Oc2c(c3c(c4ccccc24)OC(C)(C)C=C3)C2=C1C(=O)c1ccccc1C2=O` (stereo unspecified) [TECOMAQUINONE] here?
**A.** Its IC50 is 112 nM.

**Q.** What about the IC50 [4] of the same molecule?
**A.** Its IC50 is > 22 µM.

**Q.** What about the IC50 [5] of the same molecule?
**A.** Its IC50 is 65 nM.

**Q.** And the Activity [6]?
**A.** The Activity was “Non-Toxic”.

**Q.** Which IC50 [2] does the source give for `CCC(CC(C)C(=O)O)C(=O)CC/C(C)=C/C(C)C/C(C)=C/C(C)C(O)C(C)CCC(CCCC/C=C/C(C)CCC(C)OC(=O)CC(CC(=O)O)C(=O)O)OC(=O)CC(CC(=O)O)C(=O)O` (stereo unspecified) here?
**A.** Its IC50 is 50 nM.

**Q.** Which IC50 [2] does the source give for `O=C(O)C/C(C(=O)O)=C(/CCCCCCCCCCCCCCCCOS(=O)(=O)O)C(=O)O` here?
**A.** Its IC50 is 14 nM.

**Q.** With `CCCCCCCC(=O)O[C@@H]1[C@@H](O)C2(CCCC(OC(C)=O)C(C)C/C=C/c3ccccc3)OC(C(=O)O)C(O)(C(=O)O)C1(C(=O)O)O2` (stereo partly specified) as the molecule, how does the IC50 [1] read?
**A.** Its IC50 is 100 nM.

**Q.** For `CC(C)=CCC/C(C)=C/CCC1(C)C=Cc2c3c(c4ccccc4c2O1)OC(C)(CC/C=C(\C)CCC=C(C)C)C=C3` (stereo unspecified), which IC50 ([3]; read-out: IC50) is on record?
**A.** The IC50 was 2600 nM.

**Q.** What about the IC50 [4] of the same molecule?
**A.** Its IC50 is > 18 µM.

**Q.** What about the IC50 [5] of the same molecule?
**A.** Its IC50 is 1700 nM.

**Q.** What about the Activity [6] of the same molecule?
**A.** Its Activity is “Non-Toxic”.

**Q.** What does the source list for `CC1(C)C=Cc2c(-c3c4c(c5ccccc5c3O)OC(C)(C)C=C4)c(O)c3ccccc3c2O1` [tectol]?
**A.** IC50 ([3]; read-out: IC50): 1730 nM; IC50 [4]: 3.44 µM; IC50 [5]: 2090 nM; Activity [6]: Non-Toxic

**Q.** With `CC(C)=CCC/C(C)=C/CC/C(C)=C/C1Oc2c(c3c(c4ccccc24)OC(C)(CC/C=C(\C)CCC=C(C)C)C=C3)C2=C1C(=O)c1ccccc1C2=O` (stereo unspecified) as the molecule, how does the IC50 [3] read?
**A.** The IC50 was “Not Active”.

**Q.** And the IC50 [4]?
**A.** The IC50 was > 14 µM.

**Q.** What about the IC50 [5] of the same molecule?
**A.** Its IC50 is 9980 nM.

**Q.** What about the Activity [6] of the same molecule?
**A.** The Activity was “Non-Toxic”.

**Q.** With `CC(C)=CCC/C(C)=C/CCc1ccc2c(c1)C(=O)c1ccccc1C2=O` as the molecule, how does the IC50 ([3]; read-out: IC50) read?
**A.** Its IC50 is 1700 nM.

**Q.** What about the IC50 [4] of the same molecule?
**A.** Its IC50 is > 28 µM.

**Q.** And the IC50 [5]?
**A.** Its IC50 is 1400 nM.

**Q.** And the Activity [6]?
**A.** Its Activity is “Non-Toxic”.
